Source: PubChem BioAssay (NCI)
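Dose response: 5 concentrations. Exposure: 48 h. Format: 96-well plates. Endpoint: linear interpolation; highest concentration if not reached. Definition used: TGI = concentration required for complete inhibition of growth.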

Key:
Assay in all cases: NCI-60 cell line screen, 48 h
[1] = tested on: 786-0 renal
[2] = tested on: A498 renal
[3] = tested on: A549 NSCLC
[4] = tested on: ACHN renal
[5] = tested on: CAKI-1 renal
[6] = tested on: CCRF-CEM leukemia
[7] = tested on: COLO 205 colon
[8] = tested on: DLD-1 colon
[9] = tested on: DMS 114 small cell lung
[10] = tested on: DMS 273 small cell lung
[11] = tested on: EKVX NSCLC
[12] = tested on: HCC-2998 colon
[13] = tested on: HCT-116 colon
[14] = tested on: HCT-15 colon
[15] = tested on: HL-60(TB) leukemia
[16] = tested on: HOP-18 NSCLC
[17] = tested on: HOP-62 NSCLC
[18] = tested on: HOP-92 NSCLC
[19] = tested on: HT29 colon
[20] = tested on: IGROV1 ovarian
[21] = tested on: K-562 leukemia
[22] = tested on: KM12 colon
[23] = tested on: KM20L2 colon
[24] = tested on: LOX IMVI melanoma
[25] = tested on: LXFL 529 NSCLC
[26] = tested on: M14 melanoma
[27] = tested on: M19-MEL melanoma
[28] = tested on: MALME-3M melanoma
[29] = tested on: MOLT-4 leukemia
[30] = tested on: NCI-H226 lung
[31] = tested on: NCI-H23 lung
[32] = tested on: NCI-H460 lung
[33] = tested on: NCI-H522 lung
[34] = tested on: OVCAR-3 ovarian
[35] = tested on: OVCAR-4 ovarian
[36] = tested on: OVCAR-5 ovarian
[37] = tested on: OVCAR-8 ovarian
[38] = tested on: RPMI-8226 leukemia
[39] = tested on: RXF 393 renal
[40] = tested on: SF-268 CNS
[41] = tested on: SF-295 CNS
[42] = tested on: SF-539 CNS
[43] = tested on: SK-MEL-2 melanoma
[44] = tested on: SK-MEL-28 melanoma
[45] = tested on: SK-MEL-5 melanoma
[46] = tested on: SK-OV-3 ovarian
[47] = tested on: SN12C renal
[48] = tested on: SNB-19 CNS
[49] = tested on: SNB-75 CNS
[50] = tested on: SNB-78 CNS
[51] = tested on: SR leukemia
[52] = tested on: SW-620 colon
[53] = tested on: TK-10 renal
[54] = tested on: U251 CNS
[55] = tested on: UACC-257 melanoma
[56] = tested on: UO-31 renal
[57] = tested on: XF 498 CNS
[58] = tested on: UACC-62 melanoma

With `Cc1c2ccncc2c(C)c2c1[nH]c1ccc(OC(C)C)cc12` the TGI [1] was 2.44 µM, the TGI [2] was 2.78 µM and the TGI [3] was 3.1 µM. The TGI [4] was 2.56 µM, the TGI [5] was 2.96 µM and the TGI [6] was 7.68 µM. It also gave a TGI [7] of 2.81 µM, a TGI [8] of 3.13 µM and a TGI [9] of 3.24 µM. For the same compound, the TGI [10] was 2.07 µM, the TGI [11] was 2.81 µM and the TGI [12] was 3.48 µM. The TGI [13] was 2.04 µM, the TGI [14] was 2.74 µM and the TGI [15] was 4.46 µM. For the same compound, the TGI [16] was 2.93 µM, the TGI [17] was 2.66 µM and the TGI [18] was 3.22 µM. The TGI [19] was 2.64 µM, the TGI [20] was 2.79 µM and the TGI [21] was 4.4 µM. For the same compound, the TGI [22] was 2.86 µM, the TGI [23] was 2.59 µM and the TGI [24] was 2.51 µM. The TGI [25] was 2.1 µM, the TGI [26] was 2.96 µM and the TGI [27] was 3.42 µM. For the same compound, the TGI [28] was 3.16 µM, the TGI [29] was 2.97 µM and the TGI [30] was 3.05 µM. For the same compound, the TGI [31] was 2.93 µM, the TGI [32] was 2.25 µM and the TGI [33] was 3.06 µM. For the same compound, the TGI [34] was 2.98 µM, the TGI [35] was 3.14 µM and the TGI [36] was 2.87 µM. For the same compound, the TGI [37] was 2.28 µM, the TGI [38] was 5.12 µM and the TGI [39] was 2.76 µM. For the same compound, the TGI [40] was 3.07 µM, the TGI [41] was 2.73 µM and the TGI [42] was 3.36 µM. The TGI [43] was 3.22 µM, the TGI [44] was 3.21 µM and the TGI [45] was 3.2 µM. For the same compound, the TGI [46] was 2.77 µM, the TGI [47] was 2.45 µM and the TGI [48] was 3.12 µM. For the same compound, the TGI [49] was 3.36 µM, the TGI [50] was 6.05 µM and the TGI [51] was 3.73 µM. It also gave a TGI [52] of 1.89 µM, a TGI [53] of 3.37 µM and a TGI [54] of 2.94 µM. It also gave a TGI [55] of 3.3 µM, a TGI [56] of 2.89 µM and a TGI [57] of 2.91 µM.

For `CC1=C(c2ccccc2)C(c2ccccc2)=C(c2ccccc2)C2(c3ccccc3)C(=O)C(C)CN12` (stereo not given), the TGI [1] was > 100 µM, the TGI [2] was > 100 µM and the TGI [3] was > 100 µM. The TGI [4] was > 100 µM, the TGI [5] was > 100 µM and the TGI [8] was > 100 µM. The TGI [10] was > 100 µM, the TGI [11] was > 100 µM and the TGI [12] was > 100 µM. For the same compound, the TGI [13] was > 100 µM, the TGI [14] was > 100 µM and the TGI [17] was > 100 µM. For the same compound, the TGI [19] was > 100 µM, the TGI [20] was > 100 µM and the TGI [22] was > 100 µM. The TGI [23] was > 100 µM, the TGI [24] was > 100 µM and the TGI [25] was > 100 µM. The TGI [26] was > 100 µM, the TGI [27] was > 100 µM and the TGI [28] was > 100 µM. For the same compound, the TGI [29] was > 100 µM, the TGI [30] was 84.8 µM and the TGI [32] was > 100 µM. The TGI [33] was 72.4 µM, the TGI [34] was > 100 µM and the TGI [35] was 50.5 µM. The TGI [36] was > 100 µM, the TGI [37] was 59.2 µM and the TGI [38] was > 100 µM. For the same compound, the TGI [39] was 63.5 µM, the TGI [40] was > 100 µM and the TGI [41] was 37.7 µM. For the same compound, the TGI [42] was > 100 µM, the TGI [43] was > 100 µM and the TGI [44] was > 100 µM. For the same compound, the TGI [45] was > 100 µM, the TGI [46] was > 100 µM and the TGI [47] was > 100 µM. For the same compound, the TGI [48] was > 100 µM, the TGI [49] was 64.5 µM and the TGI [51] was > 100 µM. The TGI [52] was > 100 µM, the TGI [54] was > 100 µM and the TGI [55] was > 100 µM. The TGI [58] was > 100 µM, the TGI [56] was > 100 µM and the TGI [57] was 82.8 µM.
